Structures can show the parent of a compound that is named as a salt.
Test system: pituitary cells
Assay: Pituitary Cell Culture Assay for Growth Hormone (GH) Secretion
Type: cell-based
Conditions: stimulation of GH secretion, cultured rat anterior pituitary cells, 45 min at room temperature, rat GH radioimmunoassay
From the text: Growth hormone secretagogue activity can be determined using a typical assay which may employ pituitary cells established in culture, followed by a challenge with the various compounds of formula I, and the levels of growth hormone determined accordingly. Growth hormone levels may be calculated using various radioimmunoassay techniques known to those of skill in the art. One example of such an assay is detailed herein.
Pituitary Cell Culture Assay for Growth Hormone (GH) Secretion
Fifteen 250 g male Sprague-Dawley rats are used for each assay. The animals are killed by decapitation and anterior pituitaries are removed and placed into ice cold culture medium. The pituitaries are sectioned in small pieces and enzymatically digested using trypsin (Difco) to weaken connective tissue. Pituitary cells are dispersed by mechanical agitation, collected, pooled and then seeded into 96-well plates (50,000 cells/well). After 5 days of culture, the cells formed as monolayer (70-80% confluent). Cells are then washed with medium (without phenol red) and incubated for 90 min at 37° C. Afterwards the cells are challenged to secrete GH by the addition of GH secretagogues to the medium. After 45 min at room temperature, the medium is removed, filtered and stored frozen until radioimmunoassays for rat GH were performed. Doses of secretagogue are added in triplicates. Compounds disclosed herein are active in the assay as described. The compounds cause a stimulation of GH secretion resulting in at least 20% increase of the basal level of GH with and EC50<500 nM. […] Both EC50 and efficacy values were calculated by the 4-parameter logistic equation. Such values were pooled and represented as mean+/−standard error, when appropriate.

Row | SMILES | EC50 | EC50 (0.75 h)
1 | CCN(CC1=C(c2ccc(Cl)cc2)S(=O)(=O)NC1(C)C)C(=O)[C@@H](COCc1c(F)cccc1F)NC(=O)C(C)(C)N [Example 16, 2-(R)-2-(2-Amino-2-methylpropionylamino)-3-(2,6-difluorophenyl)methoxy propionic acid N-[5-(4-chlorophenyl)-3,3-dimethyl-1,1-dioxo-2,3-dihydroisothiazol-4-ylmethyl]-N-ethylamide Hydrochloride] | 1.1 nM | 
2 | CN(CC1=C(c2ccc(Cl)cc2)S(=O)(=O)NC1(C)C)C(=O)[C@@H](COCc1ccc(F)cc1)NC(=O)C(C)(C)N [Example 7, 2-(R)-2-(2-Amino-2-methylpropionylamino)-3-(4-fluorophenyl)methoxy propionic acid N-[5-(4-chlorophenyl)-3,3-dimethyl-1,1-dioxo-2,3-dihydroisothiazol-4-ylmethyl]-N-methylamide Hydrochloride] |  | 1.7 nM
3 | CCN(CC1=C(c2ccc(S(C)(=O)=O)cc2)S(=O)(=O)NC12CCCCC2)C(=O)[C@@H](COCc1cc(F)cc(F)c1)NC(=O)C(C)(C)N [Example 5, 2-(R)-2-(2-Amino-2-methylpropionylamino)-3-(3,5-difluorophenyl)methoxypropionic acid N-ethyl-N-(3-(4-methanesulfonyl-phenyl)-2,2-dioxo-2-thia-1-azaspiro[4.5]dec-3-ene-4-ylmethyl)amide Hydrochloride] |  | 0.6 nM
4 | CCN(CC1=C(c2ccc(Cl)cc2)S(=O)(=O)NC1(C)C)C(=O)[C@@H](COCc1ccc(F)cc1F)NC(=O)C(C)(C)N [Example 12, 2-(R)-2-(2-Amino-2-methylpropionylamino)-3-(2,4-difluorophenyl)methoxy propionic acid N-[5-(4-chlorophenyl)-3,3-dimethyl-1,1-dioxo-2,3-dihydroisothiazol-4-ylmethyl]-N-ethylamide Hydrochloride] | 8 nM | 
5 | CCN(CC1=C(c2ccc(S(C)(=O)=O)cc2)S(=O)(=O)NC12CCCCC2)C(=O)[C@@H](COCc1cc(F)ccc1F)NC(=O)C(C)(C)N [Example 2, 2-(R)-2-(2-Amino-2-methylpropionylamino)-3-(2,5-difluorophenyl)methoxypropionic acid N-ethyl-N-(3-(4-methanesulfonyl-phenyl)-2,2-dioxo-2-thia-1-azaspiro[4.5]dec-3-ene-4-ylmethyl)amide Hydrochloride] |  | 0.23 nM
6 | CCN(CC1=C(c2ccc(S(C)(=O)=O)cc2)S(=O)(=O)NC12CCCCC2)C(=O)[C@@H](COCc1ccc(F)c(F)c1)NC(=O)C(C)(C)N [Example 4, 2-(R)-2-(2-Amino-2-methylpropionylamino)-3-(3,4-difluorophenyl)methoxypropionic acid N-ethyl-N-(3-(4-methanesulfonyl-phenyl)-2,2-dioxo-2-thia-1-azaspiro[4.5]dec-3-ene-4-ylmethyl)amide Hydrochloride] |  | 0.9 nM
7 | CCN(CC1=C(c2ccc(Cl)cc2)S(=O)(=O)NC1(C)C)C(=O)[C@@H](COCc1cc(F)ccc1F)NC(=O)C(C)(C)N [Example 15, 2-(R)-2-(2-Amino-2-methylpropionylamino)-3-(2,5-difluorophenyl)methoxy propionic acid N-[5-(4-chlorophenyl)-3,3-dimethyl-1,1-dioxo-2,3-dihydroisothiazol-4-ylmethyl]-N-ethylamide Hydrochloride] | 2.1 nM | 
